{
  "source": "patent US8217058B2",
  "about": "“Substituted piperidino phenyloxazolidinones” (Wockhardt Ltd., priority 2006, dated 2012)",
  "key": {"[1]": {"tested_on": "Staphylococcus aureus ATCC 29213", "assay": "MIC test (agar dilution)", "type": "cell-based", "conditions": "Mueller Hinton agar, 24 h at 35° C."}, "[2]": {"tested_on": "Streptococcus group G ATCC 12394", "assay": "MIC test (agar dilution)", "type": "cell-based", "conditions": "Mueller Hinton agar, 24 h at 35° C."}, "[3]": {"tested_on": "Staphylococcus aureus Mu-50 VISA", "assay": "MIC test (agar dilution)", "type": "cell-based", "conditions": "Mueller Hinton agar, 24 h at 35° C."}, "[4]": {"tested_on": "Streptococcus pneumoniae ATCC 49619", "assay": "MIC test (agar dilution)", "type": "cell-based", "conditions": "Mueller Hinton agar, 24 h at 35° C."}, "[5]": {"tested_on": "Staphylococcus aureus ATCC 25923", "assay": "MIC test (agar dilution)", "type": "cell-based", "conditions": "Mueller Hinton agar, 24 h at 35° C."}, "[6]": {"tested_on": "Streptococcus agalactiae ATCC 13813", "assay": "MIC test (agar dilution)", "type": "cell-based", "conditions": "Mueller Hinton agar, 24 h at 35° C."}, "[7]": {"tested_on": "Staphylococcus epidermidis STE-110 MRSE", "assay": "MIC test (agar dilution)", "type": "cell-based", "conditions": "Mueller Hinton agar, 24 h at 35° C."}, "[8]": {"tested_on": "Staphylococcus aureus MRSA-032", "assay": "MIC test (agar dilution)", "type": "cell-based", "conditions": "Mueller Hinton agar, 24 h at 35° C.", "protocol": "The in vitro MIC methods of test compounds were determined essentially as described in WO 95/25106, U.S. Pat. No. 5,668,286 and EP 0 750 618 B1.\nOvernight grown cultures of MRSA-032 organisms in Tryptic Soya broth were diluted in Mueller Hinton Broth to give optical density matching with MacFarland tube 0.5 standard. Cultures were further diluted 1:10 in Mueller Hinton broth. Using Denley's multipoint inoculator, 10^4 cells were deposited on Mueller Hinton agar (Difco) containing range of 2 fold dilutions of test compounds. […] MIC is defined as minimum drug concentration that inhibits test organisms."}, "[9]": {"tested_on": "Enterococcus faecium Efa-332 VRE", "assay": "MIC test (agar dilution)", "type": "cell-based", "conditions": "Mueller Hinton agar, 24 h at 35° C."}, "[10]": {"tested_on": "Staphylococcus aureus Smith", "assay": "MIC test (agar dilution)", "type": "cell-based", "conditions": "Mueller Hinton agar, 24 h at 35° C."}, "[11]": {"tested_on": "Streptococcus group F ATCC 12392", "assay": "MIC test (agar dilution)", "type": "cell-based", "conditions": "Mueller Hinton agar, 24 h at 35° C."}, "[12]": {"tested_on": "Streptococcus pneumoniae ATCC 6303", "assay": "MIC test (agar dilution)", "type": "cell-based", "conditions": "Mueller Hinton agar, 24 h at 35° C."}, "[13]": {"tested_on": "Enterococcus faecalis Efe-406 VRE", "assay": "MIC test (agar dilution)", "type": "cell-based", "conditions": "Mueller Hinton agar, 24 h at 35° C."}, "[14]": {"tested_on": "Enterococcus faecium Efa-303", "assay": "MIC test (agar dilution)", "type": "cell-based", "conditions": "Mueller Hinton agar, 24 h at 35° C."}, "[15]": {"tested_on": "Streptococcus pyogenes ATCC 25147", "assay": "MIC test (agar dilution)", "type": "cell-based", "conditions": "Mueller Hinton agar, 24 h at 35° C."}, "[16]": {"tested_on": "Staphylococcus epidermidis STE-118", "assay": "MIC test (agar dilution)", "type": "cell-based", "conditions": "Mueller Hinton agar, 24 h at 35° C."}, "[17]": {"tested_on": "Streptococcus group C ATCC 12388", "assay": "MIC test (agar dilution)", "type": "cell-based", "conditions": "Mueller Hinton agar, 24 h at 35° C."}, "[18]": {"tested_on": "Streptococcus group B ATCC 12386", "assay": "MIC test (agar dilution)", "type": "cell-based", "conditions": "Mueller Hinton agar, 24 h at 35° C."}, "[19]": {"assay": "Oral pharmacokinetic study in dog, serum concentrations by HPLC", "type": "in vivo", "set-up": "Serum concentration: unit not given here", "conditions": "for Serum concentration: dog, 15 mg/kg p.o", "protocol": "Oral (15 mg/kg p.o) pharmacokinetic studies were done in dog. Blood samples were collected at time points of 0, 0.08 (not for oral), 0.25, 0.50, 1.0, 1.5, 2.0, 3.0, 4.0, 5.0, 6.0, 8.0, 10.0, 12.0 and 24.0 h. To facilitate IV dosing and collection of blood samples, the dogs were implanted with cannula in cephalic vein. Serum obtained from blood samples was used for HPLC-based analysis.\nSerum samples were extracted by solid phase extraction technique using Water's OASIS HLB cartridges. An HPLC-Diode array detection system was used for analysis. Prepared samples were chromatographed on a YMC-AM reversed phase column (150×4.6 mm ID; 5 μm) using an isocratic mobile phase acetate buffer (50 mmol ammonium acetate pH 6.6) acetonitrile, 66:34% v/v (for a representative compound of the invention) at a flow rate of 1 ml/min, measured at λmax 254 nm. Independently prepared analytical standards and quality control samples were analyzed with each set of unknown samples."}, "[20]": {"tested_on": "Staphylococcus aureus STA-014", "assay": "MIC test (agar dilution)", "type": "cell-based", "conditions": "Mueller Hinton agar, 24 h at 35° C."}, "[21]": {"tested_on": "Enterococcus faecalis ATCC 29212", "assay": "MIC test (agar dilution)", "type": "cell-based", "conditions": "Mueller Hinton agar, 24 h at 35° C."}},
  "data": [
    {"molecule": "COCC1(O)CCN(c2c(F)cc(N3C[C@H](CNC(C)=O)OC3=O)cc2F)CC1", "note": "[Example-11, (5S)—N-{3-[3,5-difluoro-4-(4-hydroxy-(4-methoxymethyl)-piperidin-1yl)phenyl]-2-oxo-oxazolidin-5-ylmethyl}-acetamide]", "values": [
      {"measurement": "MIC", "setting": "[1]", "value": 2, "unit": "µg/mL"},
      {"measurement": "MIC", "setting": "[2]", "value": 2, "unit": "µg/mL"},
      {"measurement": "MIC", "setting": "[3]", "value": 2, "unit": "µg/mL"},
      {"measurement": "MIC", "setting": "[4]", "value": 2, "unit": "µg/mL"},
      {"measurement": "MIC", "setting": "[5]", "value": 2, "unit": "µg/mL"},
      {"measurement": "MIC", "setting": "[6]", "value": 2, "unit": "µg/mL"},
      {"measurement": "MIC", "setting": "[7]", "value": 1, "unit": "µg/mL"},
      {"measurement": "MIC", "setting": "[8]", "value": 4, "unit": "µg/mL"},
      {"measurement": "MIC", "setting": "[9]", "value": 2, "unit": "µg/mL"},
      {"measurement": "MIC", "setting": "[10]", "value": 2, "unit": "µg/mL"},
      {"measurement": "MIC", "setting": "[11]", "value": 2, "unit": "µg/mL"},
      {"measurement": "MIC", "setting": "[12]", "value": 2, "unit": "µg/mL"},
      {"measurement": "MIC", "setting": "[13]", "value": 4, "unit": "µg/mL"},
      {"measurement": "MIC", "setting": "[14]", "value": 4, "unit": "µg/mL"},
      {"measurement": "MIC", "setting": "[15]", "value": 2, "unit": "µg/mL"},
      {"measurement": "MIC", "setting": "[16]", "value": 1, "unit": "µg/mL"},
      {"measurement": "MIC", "setting": "[17]", "value": 2, "unit": "µg/mL"},
      {"measurement": "MIC", "setting": "[18]", "value": 2, "unit": "µg/mL"},
      {"measurement": "Serum concentrations relative to the MIC value", "setting": "[19]; dog pharmacokinetic study, up to 24 h post dosing", "value": "significantly higher serum concentrations above the MIC value up to 24 h post dosing"},
      {"measurement": "Serum concentration", "setting": "[19]; time point 0.0 hr", "value": 0.0},
      {"measurement": "Serum concentration", "setting": "[19]; time point 0.25 hr", "value": 4.14},
      {"measurement": "Serum concentration", "setting": "[19]; time point 0.5 hr", "value": 5.41},
      {"measurement": "Serum concentration", "setting": "[19]; time point 1.0 hr", "value": 8.76},
      {"measurement": "Serum concentration", "setting": "[19]; time point 2.0 hr", "value": 11.42},
      {"measurement": "Serum concentration", "setting": "[19]; time point 3.0 hr", "value": 10.97},
      {"measurement": "Serum concentration", "setting": "[19]; time point 4.0 hr", "value": 10.37},
      {"measurement": "Serum concentration", "setting": "[19]; time point 5.0 hr", "value": 8.81},
      {"measurement": "Serum concentration", "setting": "[19]; time point 6.0 hr", "value": "7.28 ± 2.14"},
      {"measurement": "Serum concentration", "setting": "[19]; time point 8.0 hr", "value": "5.82 ± 1.58"},
      {"measurement": "Serum concentration", "setting": "[19]; time point 10.0 hr", "value": "4.50 ± 1.03"},
      {"measurement": "Serum concentration", "setting": "[19]; time point 12.0 hr", "value": "3.47 ± 1.25"},
      {"measurement": "Serum concentration", "setting": "[19]; time point 24.0 hr", "value": "2.19 ± 1.91"},
      {"measurement": "MIC", "setting": "[20]", "value": 4, "unit": "µg/mL"},
      {"measurement": "MIC", "setting": "[21]", "value": 2, "unit": "µg/mL"}
    ]}
  ]
}
